Patent publication US20230123497A1, “NOVEL ANTIBACTERIAL HYDROGELS” (NewSouth Innovations Pty Limited, priority 2020, published 2023)
Several values for one entry are separate records, joined by “and”; a condition that tells them apart may be missing. Equal values may be shown once.

Columns and labels:
[1] = Hydrogel formation, vial inversion test (critical gel concentration); type: physicochemical; design: key: VS: viscous solution; CG: clear gel; settings: vial inversion test
Source text: (§1) The simplest method to determine whether a suitable hydrogel has formed is to use the vial inversion test. Through visual inspection, a material can be categorised as a solution, viscous solution, partial gel, or solid-like gel. A stable hydrogel needs to be able to hold its weight and/or maintain its shape during this assessment.
(§2) The critical gel concentration (CGC) is defined as the minimum mass of a short peptide required to provide a self-supporting hydrogel per unit volume in the vial inversion test (measured as % w/v).
(§3) Pre-weighed samples of short peptide 4 were prepared in aluminium-covered glass vials and Milli-Q water and 2 equivalents of NaOH (1.0 M) were added to make up concentrations of 1% w/v. The resulting suspensions were vortexed for 5 minutes to provide clear yellow solutions with pH 11.
(§4) To create a high ionic strength environment, 1 equivalent of NaCl was added and the vial was left to stand without disturbance for 3 hours at room temperature. Meanwhile, as an attempt to form a hydrogel by lowering the pH, 2 equivalents of GdL were added to a high pH solution of 4 followed by gentle mixing. These vials were inverted and allowed to stand overnight to confirm the hydrogel formation.
(§5) The formation of hydrogel 4 via the solvent switch method was conducted by dissolving short peptide 4, in an aluminium covered glass vial, with either 50% methanol, ethanol, or dimethyl sulfoxide (DMSO). Respective amounts of Mili-Q water were added to make up concentrations of 1% w/v.
(§6) In addition, gelation time was defined as the time (hours) required for 1% w/v of short peptide 4 to form a hydrogel which can be turned upside down without collapsing.
(§7) Pre-weighed samples of short peptides 10a-17a, 18, and 19 were prepared in glass vials with 10 mm internal diameter, and Milli-Q water was added to make up concentrations of 1% w/v. The resulting suspensions of short peptides 13, 18, and 19 (as ammonium or guanidinium salts) were slowly warmed until all solid had completely dissolved. GdL (1.5 to 2.0 equivalents) was added to the suspension of short peptides 10a-17a, before heat was applied. To create a high ionic strength environment, 1-5 equivalents of NaCl was added to the viscous solution of 10a-17a to make the total volume up to 1 mL, followed by gentle mixing, and the vial was left to stand without disturbance for 3 hours at room temperature. Subsequently, these vials were inverted and allowed to stand overnight to confirm hydrogel formation.

[2] = Atomic force microscopy (AFM) of fibers; type: physicochemical; settings: for fiber diameter: hydrogel, 4× below CGC (17 imaged at 0.10% w/v); for fiber bundle diameter: hydrogel after addition of salt, 4× below CGC
Method: Hydrogels of NO-releasing short peptide 4 (1 drop), at high pH, low pH, and after irradiation, were cast onto a mica substrate. Hydrogels of cationic short peptides 11-13 and 15-19 were prepared at their CGC, 2× below, and 4× below CGC in glass vials. Prior to gelation, one drop of the cationic short peptide solutions was cast onto a mica substrate. Using a glass slide, each droplet was carefully spread and was left to dry overnight before imaging. Imaging was performed using a Bruker Multimode 8 Atomic Force Microscope in Scanasyst Air (PeakForce Tappings) mode, which is based on tapping mode AFM. To prevent damage of soft samples, the imaging parameters were constantly optimized through the force curves that were collected. Bruker Scanasyst-Air probes were used, with a spring constant of 0.4-0.8 N·m^−1 and a tip radius of 2 nm.
To gain some insight on the mechanism of antibacterial action, the released solutions from hydrogel made of primary ammonium 11 were directly cast onto a mica substrate. […] After gently spreading using a glass slide and left to dry overnight, these samples were imaged using a similar manner as describe above.

[3] = Strain sweep test (SST), linear viscoelastic region; type: physicochemical; settings: hydrogels at 1% w/v, SST at 1 Hz, 0.1% to 100% strain
Method: (§8) Initially, 1 mL of hydrogels were prepared from short peptides 11-13 and 15-19 in glass vials at concentration of 1% w/v. These vials were warmed using a heat gun to transform the hydrogel to the solution phase. Subsequently, 560 μL of the resulting solutions were cast onto the rheometer plate. The other plate was lowered to the measuring position ([…]) and the hydrogel was allowed to stand for 3 hours for the gel to form. The FST was conducted at fixed strain of 0.1% and frequency ranging from 10 Hz to 0.01 Hz. Meanwhile, the strain sweep test (SST) was performed at a frequency of 1 Hz using 0.1% strain to 100% strain. The rheology data were shown as the average of three repeats for each data point.
(§9) The mechanical properties of hydrogels 4 (formed via addition of NaCl or GdL) before and after blue light irradiation were also assessed using an Anton Paar MCR 302 rheometer with a 25 mm stainless parallel plate configuration. Prior to the hydrogel formation, 560 μL of solution phase of short peptide 4 at 1% w/v were transferred onto a rheometer plate. Meanwhile, hydrogel 4, which had been exposed to blue light, was warmed using a heat gun, to provide its solution phase. Subsequently, 560 μL of this solution phase was cast onto the rheometer plate. The other plate was lowered to the measuring position ([…]) and the hydrogel was allowed to stand for 3 hours for the gel to form. The frequency sweep test (FST) was conducted at fixed strain of 0.1% and frequency ranging from 10 Hz to 0.01 Hz. Meanwhile, the SST was performed at a frequency of 1 Hz using 0.1% strain to 100% strain. In addition, the temperature sweep test was conducted to obtain transition glass (Tg) using fixed frequency of 1 Hz and fixed strain of 0.1% with temperature ramping from 25° C. to 90° C. The rheology data were shown as the average of three repeats for each data point.
To observe the structural decay in anthranilamide-based cationic hydrogels, the SST was performed by imposing a non-linear strain. SST provides information about the viscoelastic properties of a hydrogel through determination of its linear viscoelastic region (LVER). […] Here, the LVER reported for each hydrogel represents the deviation of storage modulus (G′) from linearity, known as yield point (γy). Yield points have been reported to reflect a point where the rigidity of a hydrogel starts to weaken.

[4] = Hydrogel formation, vial inversion test (critical gel concentration); type: physicochemical; settings: for CGC: triggers GdL; for Remarks (gel state): vial inversion test
Source text: as §1, §2, §3, §4, §5, §6, §7

[5] = Frequency sweep test (FST), rheometer; type: physicochemical; settings: for G′ (modulus storage) / G″ (modulus loss): FST fixed strain 0.1%
Method: The mechanical properties of anthranilamide-based cationic hydrogels were assessed using an Anton Paar MCR 302 rheometer with a 25 mm stainless parallel plate configuration.
as §8, §9
In the FST, samples were measured over a range of oscillation frequencies (0.1-10 rad/s) at fixed strain, temperature, and oscillation amplitude. Higher frequencies simulate fast motion on a short time-scale, while low frequencies simulate slow motion on a long time-scale, or rest. All of the hydrogels made from the anthranilamide-based short cationic peptides, which passed the vial inversion test, were subjected to the FST using a rheometer to precisely assess their mechanical properties.

S. aureus 38 = assay: Antibacterial activity of cationic hydrogels, viable count method; type: cell-based, Staphylococcus aureus; settings: hydrogel at 1% w/v in contact with S. aureus, compared to control
Method: The antibacterial activity of the anthranilamide-based cationic hydrogels 11-13 and 15-19 was investigated in vitro against S. aureus. The antibacterial activity of anthranilamide-based cationic hydrogel 11 was also investigated in vitro against E. coli.
First, a single colony of S. aureus 38 or E. coli K12 was grown in Luria-Bertani (LB) broth medium at 37° C. overnight. The resulting bacteria were harvested, via centrifugation, to obtain a bacteria pellet which was re-suspended in the same volume of LB medium, twice. The optical density (OD) value of the resulting culture was adjusted to 0.1 at 600 nm in LB (10^8 cfu·mL^−1). This bacteria solution was then further adjusted to 3×10^4 cfu mL^−1. (CFU or cfu=colony-forming unit). Bacteria solutions (1 mL), which contain either 10^8 CFUs/mL or 3×10^4 CFUs/mL, were gently added to hydrogel 11 at 1% w/v with total volume of 1 mL. Anthranilamide-based cationic hydrogels 11-13 and 15-19 (1 mL) were prepared at 1% w/v in glass vials as described above. On top of these pre-formed hydrogels, 1 mL of bacteria solution was carefully cast. […] As a negative control, a bacterial solution in the absence of hydrogel was used. After being incubated at 37° C. for 18 hours, 100 μL of bacteria solution in each vial was taken and subjected to serial dilution using phosphate buffer solution (PBS). 20 μL of each dilution were carefully transferred into nutrient agar plates and incubated for another 18 hours. The following day, bacterial growth inhibition was quantified using the viable count method. The experiment was performed twice in triplicate and multiple sample comparison was performed using one-way ANOVA at p<0.05.

[6] = Hydrogel formation, vial inversion test (critical gel concentration); type: physicochemical; design: key: OG: opaque gel; P: precipitate; settings: cationic peptides 10-14; vial inversion test
Source text: as §1, §2, §3, §4, §5, §6, §7

[7] = as above; type: physicochemical; design: key: CG: clear gel; PG: partial gel; OG: opagque gel; settings: cationic peptides 15-19
Source text: as §1, §2, §3
as §4, with “formation. […]” for “formation.”

[8] = cationic peptides 15-19, heat and NaCl (18, 19: heat and NaCl)
[9] = hydrogels of cationic peptides 15-19
[10] = cationic peptides 10-14, heat and NaCl (13: heat and NaCl)
[11] = hydrogels of cationic peptides 10-14

Compound	Remarks (gel state) ([1]; cationic peptides 15-19)	fiber diameter [2] [nm]	LVER (linear viscoelastic region) [3]	CGC [4, 8] [% W/V]	pH [4, 9]	G′/G″ ratio ([5]; hydrogels 15-19 at 1% w/v)	G′ (modulus storage) ([5]; hydrogels 15-19 at 1% w/v) [kPa]	G″ (modulus loss) ([5]; hydrogels 15-19 at 1% w/v) [kPa]	Remarks (gel state) [6]	fiber bundle diameter [2] [nm]	CGC [4, 10] [% w/v]	pH [4, 11]	G′/G″ ratio ([5]; hydrogels 11-13 at 1% w/v)	G′ (modulus storage) ([5]; hydrogels 11-13 at 1% w/v) [kPa]	G″ (modulus loss) ([5]; hydrogels 11-13 at 1% w/v) [kPa]	Remarks (gel state) [7]	Remarks (gel state) ([1]; cationic peptides 10-14)	Remarks (gel state) ([4]; cationic peptides 10-14)	Remarks (gel state) ([4]; cationic peptides 15-19)	bacterial reduction (S. aureus 38) [Log10]
C[N+](C)(C)CCCNC(=O)[C@H](Cc1ccccc1)NC(=O)c1ccccc1NC(=O)c1ccc2ccccc2c1.[I-] [Compound 13, (S)-3-(2-(2-(2-naphthamido)benzamido)-3-phenylpropanamido)-N,N,N-trimethylpropan-1-aminium iodide]	–	–	1.10 ± 0.04%	–	–	–	–	–	OG	148±16	0.2	6	10.9	2.28	0.21	–	–	–	–	4.1
CN(C)CCCNC(=O)[C@H](Cc1ccccc1)NC(=O)c1ccc(F)cc1NC(=O)c1ccc2ccccc2c1 [Compound 15]	–	–	2.01% and 2.01 ± 0.06%	0.	5.5	20	1.20	0.06	–	115±10	–	–	–	–	–	OG	–	–	–	3.1
CN(C)CCCNC(=O)[C@H](Cc1ccccc1)NC(=O)c1ccccc1NC(=O)c1ccc2ccccc2c1 [Compound 12]	–	–	0.98 ± 0.02%	–	–	–	–	–	–	139±10	0.3	5.5	15.7	8.63	0.55	–	CG	–	–	5.1
NCCNC(=O)[C@H](Cc1ccccc1)NC(=O)c1ccccc1NC(=O)c1ccc2ccccc2c1 [Compound 10]	–	–	–	–	–	–	–	–	–	–	–	5.5	–	–	–	–	–	CG → PG	–	–
N=C(N)NCCCNC(=O)[C@H](Cc1ccccc1)NC(=O)c1ccccc1NC(=O)c1ccc2ccccc2c1 [Compound 14]	–	–	–	–	–	–	–	–	–	–	–	6	–	–	–	–	–	–	–	–
CN(C)CCCNC(=O)[C@H](Cc1ccccc1)NC(=O)c1ccc(Cl)cc1NC(=O)c1ccc2ccccc2c1 [Compound 16]	–	–	1.66% and 1.66 ± 0.10%	0.2	5.5	10.6	0.53	0.05	–	99±6	–	–	–	–	–	OG	–	–	–	5.0

More lines, main results first:

Remarks (gel state) ([1]; cationic peptides 15-19)	fiber diameter [2] [nm]	LVER (linear viscoelastic region) [3]	CGC [4, 8] [% W/V]	pH [4, 9]	G′/G″ ratio ([5]; hydrogels 15-19 at 1% w/v)	G′ (modulus storage) ([5]; hydrogels 15-19 at 1% w/v) [kPa]	G″ (modulus loss) ([5]; hydrogels 15-19 at 1% w/v) [kPa]	Remarks (gel state) [6]	fiber bundle diameter [2] [nm]	CGC [4, 10] [% w/v]	pH [4, 11]	G′/G″ ratio ([5]; hydrogels 11-13 at 1% w/v)	G′ (modulus storage) ([5]; hydrogels 11-13 at 1% w/v) [kPa]	G″ (modulus loss) ([5]; hydrogels 11-13 at 1% w/v) [kPa]	Remarks (gel state) [7]	Remarks (gel state) ([1]; cationic peptides 10-14)	Remarks (gel state) ([4]; cationic peptides 10-14)	Remarks (gel state) ([4]; cationic peptides 15-19)	Compound	bacterial reduction (S. aureus 38) [Log10]
CG	87±6	1.00 ± 0.01%	0.3	5	10.1	1.61	0.16	–	–	–	–	–	–	–	–	–	–	–	CN(C)CCCNC(=O)[C@H](Cc1ccccc1)NC(=O)c1ccccc1NC(=O)c1ccc2ccccc2c1.Cl [Compound 19, (S)-3-(2-(2-(2-naphthamido)benzamido)-3-phenylpropanamido)-N,N-dimethylpropan-1-aminium Chloride]	3.0
CG	104±4	0.98 ± 0.02%	0.3	4	16.5	5.12	0.31	–	–	–	–	–	–	–	–	–	–	–	CN(C)CCCNC(=O)[C@H](Cc1ccccc1)NC(=O)c1ccccc1NC(=O)c1ccc2ccccc2c1 [Compound 18, (S)-3-(2-(2-(2-naphthamido)benzamido)-3-phenylpropanamido)-N,N-dimethylpropan-1-aminium Ttrifluoroacetate]	4.9
–	101±6	0.16% and 0.16 ± 0.01%	–	5.5	4.0	0.08	0.02	–	–	–	–	–	–	–	–	–	–	OG → PG	CN(C)CCCNC(=O)[C@H](Cc1ccccc1)NC(=O)c1ccc(Br)cc1NC(=O)c1ccc2ccccc2c1 [Compound 17]	–
